Biological target: T1, Lp-PLA2 (Homo sapiens, UniProt Q13093)
T1 construct: aliquoted and thawed 40 μL of pooled human plasma was previously added; from tissue; host or cells: pooled human plasma
T1 sequence (Q13093 22-441): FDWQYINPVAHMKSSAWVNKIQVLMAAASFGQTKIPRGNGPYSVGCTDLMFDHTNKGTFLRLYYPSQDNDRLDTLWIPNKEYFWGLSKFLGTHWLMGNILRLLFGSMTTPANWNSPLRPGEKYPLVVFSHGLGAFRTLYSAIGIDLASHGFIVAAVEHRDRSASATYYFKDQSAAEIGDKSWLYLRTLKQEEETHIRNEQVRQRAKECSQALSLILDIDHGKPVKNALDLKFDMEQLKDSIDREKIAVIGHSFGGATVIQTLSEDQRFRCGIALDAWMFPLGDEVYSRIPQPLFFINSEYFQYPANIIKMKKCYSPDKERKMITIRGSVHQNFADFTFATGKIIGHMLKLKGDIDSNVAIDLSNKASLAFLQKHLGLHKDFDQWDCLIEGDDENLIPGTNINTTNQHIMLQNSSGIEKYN
Assay: Lipoprotein-associated phospholipase A2 (Lp-PLA2) human plasma assay (Thio-PAF assay)
Type: biochemical
Details: Lp-PLA2 human plasma assay (Thio-PAF), pooled human plasma, 30-min pre-incubation at room temperature

| SMILES | IC50 |
| --- | --- |
| O=c1nc(OCc2cc(F)c(Oc3cccc(C(F)(F)F)c3)c(F)c2)cc2n1C[C@]13CO[C@H](CN21)C3 [Example 194, (3S,11aR)-7-((3,5-difluoro-4-(3-(trifluoro-methyl)phenoxy)benzyl)oxy)-3,4-dihydro-1H,9H,11H-3,11a-methanopyrimido[6′,1′:2,3] imidazo[5,1-c][1,4]oxazin-9-one] | 4 nM |
| O=c1nc(OCCc2ccc(F)c(F)c2)cc2n1C[C@]13CO[C@H](CN21)C3 [Example 195, (3S,11aR)-7-(3,4-difluorophenethoxy)-3,4-dihydro-1H,9H,11H-3,11a-methano-pyrimido[6′,1′:2,3]imidazo[5,1-c][l,4]oxazin-9-one] | 62.7 nM |
| O=c1nc(OCc2ccc(Oc3ccnc(C(F)F)c3)c(F)c2)cc2n1CC13CCC(CC1)N23 [Example 196] | 15.4 nM |
| Cn1ccc(CN2C(=O)[C@]34C[C@H]2CN3c2cc(OCc3ccc(Oc5ccnc(C(F)(F)F)c5)c(F)c3)nc(=O)n2C4)n1 [Example 197, (3S,11aR)-7-((3-fluoro-4-((2-(trifluoromethyl)pyridin-4-yl)oxy)benzyl)oxy)-2-((1-methyl-1H-pyrazol-3-yl)methyl)-3,4-dihydro-9H, 11H-3,11a-methanopyrazino[1′2′:3,4]imidazo [1,2-c]pyrimidin-1,9(2H)-dione] | 2.9 nM |
| O=C1N(CC23CC(C2)C3)[C@@H]2CN3c4cc(OCc5ccc(Oc6ccnc(C(F)(F)F)c6)c(F)c5)nc(=O)n4C[C@]13C2 [Example 198, (3S,11aR)-2-(bicyclo[1.1.1]pent-1-ylmethyl)-7-((3-fluoro-4-((2-(trifluoromethyl)pyridin-4-yl)oxy)benzyl)oxy)-3,4-dihydro-9H,11H-3,11a-methanopyrazino[1′,2′:3,4]imidazo [1,2-c]pyrimidin-1,9(2H)-dione] | 5.1 nM |
| O=C(NCc1ccccc1)C12CN3c4cc(OCc5ccc(Oc6ccnc(C(F)(F)F)c6)c(F)c5)nc(=O)n4CC3(C1)C2 [Example 199, N-benzyl-3-((3-fluoro-4-((2-(trifluoromethyl)pyridin-4-yl)oxy)benzyl)oxy)-1-oxo-1H,6H, 9H-7,8a-methanopyrrolo[1′,2′:3,4]imidazo [1,2-c]pyrimidine-7(8H)-carboxamide] | 7.9 nM |
| N#CC12CN3c4cc(OCc5ccc(Oc6ccnc(C(F)(F)F)c6)c(F)c5)nc(=O)n4CC3(C1)C2 [Example 200, 3-((3-fluoro-4-((2-(trifluoromethyl)pyridin-4-yl)oxy)benzyl)oxy)-1-oxo-1H,6H,9H-7,8a-methanopyrrolo[1′,2′:3,4]imidazo[1,2-c] pyrimidine-7(8H)-carbonitrile] | 4.4 nM |
| CC(C)(O)C12CN3c4cc(OCc5ccc(Oc6ccnc(C(F)(F)F)c6)c(F)c5)nc(=O)n4CC3(C1)C2 [Example 201, 3-((3-Fluoro-4-((2-trifluoromethylpyridin-4-yl)oxy)benzyl)oxy)-7-(2-hydroxypropyl-2-yl)-7,8-dihydro-1H,6H,9H-7,8a-methanopyrrolo[1′, 2′:3, 4]imidazo[1,2-c]pyrimidin-1-one] | 4.4 nM |
| NC12CN3c4cc(OCc5ccc(Oc6ccnc(C(F)(F)F)c6)c(F)c5)nc(=O)n4CC3(C1)C2 [Example 202, 7-Amino-3-((3-fluoro-4-((2-(trifluoromethyl)pyridin-4-yl)oxy)benzyl)oxy)-7,8-dihydro-1H,6H,9H-7,8a-methanopyrrolo[1′,2′:3,4]imidazo[1,2-c]pyrimidin-1-one] | 1.9 nM |

Source: patent US20230044787A1, “TRICYCLE DIHYDROIMIDAZOPYRIMIDONE DERIVATIVE, PREPARATION METHOD THEREOF, PHARMACEUTICAL COMPOSITION AND USE THEREOF” (priority 2019, published 2023)
